# Results taken from patent US20240158348A1, “HERBICIDAL CYCLIC AMIDES N-SUBSTITUTED WITH A HALOALKYLSULFONYLANILIDE GROUP” (FMC Corporation, priority 2021, published 2024).
# Assays:
# Assay type in all cases: in vivo
# [1] = tested on: ryegrass, Italian (Italian ryegrass, Lolium multiflorum); experiment: Test A preemergence, Italian ryegrass; details: pre-emergence, 240 h, 0 to 100 scale, 10 days, read-out: Plant response rating, Ryegrass, Italian; for pest or weed control at 31 g/ha: 31 g ai/ha; for pest or weed control at 125 g/ha: 125 g ai/ha
# From the text: (§1) Seeds of plant species selected from barnyardgrass (Echinochloa crus-galli), blackgrass (Alopecurus myosuroides), corn (Zea mays), foxtail, giant (giant foxtail, Setaria faberi), goosegrass (Eleusine indica), kochia (Bassia scoparia), oat, wild (wild oat, Avena fatua), pigweed, palmer (palmer amaranth, Amaranthus palmeri), pigweed, redroot (redroot pigweed, Amaranthus retroflexus), ragweed (common ragweed, Ambrosia artemisiifolia), ryegrass, Italian (Italian ryegrass, Lolium multiflorum), soybean (Glycine max), and wheat (Triticum aestivum) were planted into a blend of loam soil and sand and treated preemergence with a directed soil spray using test chemicals formulated in a non-phytotoxic solvent mixture which included a surfactant.
# (§2) At the same time, plants selected from these crop and weed species and also galium (catchweed bedstraw, Galium aparine) and horseweed (Erigeron canadensis) were planted in pots containing the same blend of loam soil and sand and treated with postemergence applications of test chemicals formulated in the same manner. Plants ranged in height from 2 to 10 cm and were in the one- to two-leaf stage for the postemergence treatment. Treated plants and untreated controls were maintained in a greenhouse for 10 days, after which time all treated plants were compared to untreated controls and visually evaluated for injury. Plant response ratings, summarized in Table A, are based on a 0 to 100 scale where 0 is no effect and 100 is complete control. A dash (-) response means no test result.
# [2] = tested on: ryegrass, Italian (Italian ryegrass, Lolium multiflorum); experiment: Test A postemergence, Italian ryegrass; details: post-emergence, 240 h, 0 to 100 scale, 10 days, read-out: Plant response rating, Ryegrass, Italian; for pest or weed control at 31 g/ha: 31 g ai/ha; for pest or weed control at 125 g/ha: 125 g ai/ha
# From the text: as §1, §2
# [3] = tested on: barnyardgrass (Echinochloa crusgalli); experiment: Test B flooded paddy test, barnyardgrass; details: Echinochloa crus-galli; 250 g ai/ha, Flood; scale of 0 to 100 where 0 is no effect and 100 is complete control; visually evaluated after 10 to 14 days; read-out: Plant response rating, Barnyardgrass
# Experimental: (§3) Plant species in the flooded paddy test selected from barnyardgrass (Echinochloa crusgalli), ducksalad (Heteranthera limosa), rice (Oryza sativa), and sedge, umbrella (small-flower umbrella sedge, Cyperus difformis) were grown to the 2-leaf stage for testing. At time of treatment, test pots were flooded to 3 cm above the soil surface, treated by application of test compounds directly to the paddy water, and then maintained at that water depth for the duration of the test. Treated plants and controls were maintained in a greenhouse for 10 to 14 days, after which time all species were compared to controls and visually evaluated. Plant response ratings, summarized in Table B, are based on a scale of 0 to 100 where 0 is no effect and 100 is complete control. A dash (-) response means no test result.
# rice (Oryza sativa) = experiment: Test B flooded paddy test, rice; details: 250 g ai/ha, Flood, scale of 0 to 100 where 0 is no effect and 100 is complete control, visually evaluated after 10 to 14 days, read-out: Plant response rating, Rice
# Experimental: as §3
# [4] = tested on: blackgrass (Alopecurus myosuroides); experiment: Test A preemergence, blackgrass; details: 0 to 100 scale, 10 days
# From the text: as §1, §2
# [5] = tested on: pigweed, palmer (palmer amaranth, Amaranthus palmeri); experiment: Test A preemergence, palmer amaranth; details: 0 to 100 scale, 10 days
# From the text: as §1, §2
# [6] = tested on: wheat (Triticum aestivum); experiment: Test A preemergence, wheat; details: 0 to 100 scale, 10 days
# From the text: as §1, §2
# [7] = tested on: pigweed, palmer (palmer amaranth, Amaranthus palmeri); experiment: Test C preemergence, palmer amaranth; details: 0 is no effect, 100 is complete control
# Summary of the method: (§4)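 Herbicidal effect was estimated visually on a 0–100 scale 10 or 12 days after spraying. Formulation: non-phytotoxic solvent mixture with surfactant. Timing: directed soil spray after sowing, or postemergence on seedlings bearing one or two leaves.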
# [8] = tested on: pigweed, palmer (palmer amaranth, Amaranthus palmeri); experiment: Test C postemergence, palmer amaranth; details: for Pigweed, Palmer plant response rating: visual injury, 0 to 100 scale (0 no effect, 100 complete control)
# Summary of the method: as §4
# [9] = tested on: sedge, umbrella (small-flower umbrella sedge, Cyperus difformis); experiment: Test D flooded paddy test, umbrella sedge; design: key: 0 = no effect, 100 = complete control; details: 250 g ai/ha, Flood; applied to paddy water at 2-leaf stage; visual rating after 13 days; scale 0 (no effect) to 100 (complete control)
# Summary of the method: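 Plants were grown to the 2-leaf stage, then pots were flooded to 3 cm above soil and compounds applied directly into the paddy water, with that depth held throughout. After 13 days in a greenhouse, injury was visually rated against untreated controls on a 0–100 scale (0 no effect, 100 complete control).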
# [10] = tested on: blackgrass (Alopecurus myosuroides); experiment: Test C postemergence, blackgrass; details: 125 g ai/ha Postemergence; 0 is no effect, 100 is complete control
SMILES,pest or weed control at 31 g/ha [1] [%],pest or weed control at 125 g/ha [1] [%],pest or weed control at 31 g/ha [2] [%],pest or weed control at 125 g/ha [2] [%],pest or weed control at 250 g/ha [3] [%],plant injury at 250 g/ha (rice (Oryza sativa)) [%],"Plant response rating, Blackgrass ([4]; 31 g ai/ha)","Plant response rating, Blackgrass ([4]; 125 g ai/ha)","Plant response rating, Pigweed, Palmer ([5]; 31 g ai/ha)","Plant response rating, Pigweed, Palmer ([5]; 125 g ai/ha)","Plant response rating, Wheat ([6]; 31 g ai/ha)","Plant response rating, Wheat ([6]; 125 g ai/ha)","Plant response rating (0 to 100 scale), Pigweed, Palmer ([7]; 31 g ai/ha Preemergence)","Plant response rating (0 to 100 scale), Pigweed, Palmer ([7]; 125 g ai/ha Preemergence)","Pigweed, Palmer plant response rating ([8]; 31 g ai/ha Postemergence)","Plant response rating (0 to 100 scale), Pigweed, Palmer ([8]; 125 g ai/ha Postemergence, 0 is no effect, 100 is complete control)","Plant response rating, Sedge, Umbrella [9]","Plant response rating (0 to 100 scale), Blackgrass [10]","Pigweed, Palmer plant response rating ([8]; 125 g ai/ha Postemergence)"
"C#CCOC1CCN(c2cc(NS(=O)(=O)C(F)(F)F)c(C)cc2C)C1=O (stereo not drawn) [Compound 1, N-[2,4-dimethyl-5-[2-oxo-3-(2-propyn-1-yloxy)-1-pyrrolidinyl]phenyl]-1,1,1-trifluoromethanesulfonamide]",100,100,70,70,60,30,,,,,,,,,,,,,
"C=CCOC1CCN(c2cc(NS(=O)(=O)C(F)(F)F)c(C)cc2C)C1=O (stereo not drawn) [Compound 2, N-[2,4-dimethyl-5-[2-oxo-3-(2-propen-1-yloxy)-1-pyrrolidinyl]phenyl]-1,1,1-trifluoromethanesulfonamide]",90,100,70,70,40,10,,,,,,,,,,,,,
"Cc1cc(C)c(N2CCC(OC3CC3)C2=O)cc1NS(=O)(=O)C(F)(F)F (stereo not drawn) [Compound 3, N-[5-[3-(cyclopropyloxy)-2-oxo-1-pyrrolidinyl]-2,4-dimethylphenyl]-1,1,1-trifluoromethanesulfonamide]",90,100,90,90,90,50,80,100,100,100,100,100,,,,,,,
"Cc1cc(C)c(N2CCC(OC3CCC3)C2=O)cc1NS(=O)(=O)C(F)(F)F (stereo not drawn) [Compound 4, N-[5-[3-(cyclobutyloxy)-2-oxo-1-pyrrolidinyl]-2,4-dimethylphenyl]-1,1,1-trifluoromethanesulfonamide]",100,100,80,80,45,0,20,90,100,100,70,100,,,,,,,
"Cc1cc(C)c(N(COC(=O)C(C)(C)C)S(=O)(=O)C(F)(F)F)cc1N1CCC(OC2CCCC2)C1=O (stereo not drawn) [Compound 5, [[5-[3-(cyclopentyloxy)-2-oxo-1-pyrrolidinyl]-2,4-dimethylphenyl][(trifluoromethyl)sulfonyl]amino]methyl 2,2-dimethylpropanoate]",20,90,20,40,95,0,0,40,10,50,0,20,,,,,,,
Cc1c(N2CCC(OC3CC3)C2=O)cc(N(COC(=O)C(C)(C)C)S(=O)(=O)C(F)(F)F)c(C)c1F (stereo not drawn) [Compound 23],,,,,,,,,,,,,30,100,50,70,95,50,
Cc1c(NS(=O)(=O)C(F)(F)F)cc(N2CCC(OC3CCC3)C2=O)c(C)c1F (stereo not drawn) [Compound 25],,,,,,,,,,,,,100,100,70,,90,90,90
Cc1c(NS(=O)(=O)C(F)(F)F)cc(N2CCC(OC3CC3)C2=O)c(C)c1F (stereo not drawn) [Compound 26],,,,,,,,,,,,,100,100,70,,95,90,90
Cc1c(N2CCC(OC3CCC3)C2=O)cc(N(COC(=O)C(C)(C)C)S(=O)(=O)C(F)(F)F)c(C)c1F (stereo not drawn) [Compound 28],,,,,,,,,,,,,30,80,50,,95,70,90
Cc1cc(Cl)c(N(COC(=O)C(C)(C)C)S(=O)(=O)C(F)(F)F)cc1N1CCC(OC2CC2)C1=O (stereo not drawn) [Compound 33],,,,,,,,,,,,,70,80,20,,90,60,80
Cc1cc(C)c(N2CCC(OC3COC3)C2=O)cc1NS(=O)(=O)C(F)(F)F (stereo not drawn) [Compound 34],,,,,,,,,,,,,100,100,70,,80,60,100
Cc1c(NS(=O)(=O)C(F)(F)F)cc(N2CCCC(OC3CC3)C2=O)c(C)c1F (stereo not drawn) [Compound 35],,,,,,,,,,,,,100,100,40,,95,60,70
Cc1c(N2CCCC(OC3CC3)C2=O)cc(N(COC(=O)C(C)(C)C)S(=O)(=O)C(F)(F)F)c(C)c1F (stereo not drawn) [Compound 37],,,,,,,,,,,,,50,90,0,,95,60,30
CC(=O)N(c1cc(N2CCC(OC3CC3)C2=O)c(C)cc1Cl)S(=O)(=O)C(F)(F)F (stereo not drawn) [Compound 38],,,,,,,,,,,,,90,100,50,,75,70,80
Cc1c(N2CCCC(OC3CCC3)C2=O)cc(N(COC(=O)C(C)(C)C)S(=O)(=O)C(F)(F)F)c(C)c1F (stereo not drawn) [Compound 39],,,,,,,,,,,,,0,40,0,,95,10,20
COC(=O)N(c1cc(N2CCC(OC3CC3)C2=O)c(C)cc1Cl)S(=O)(=O)C(F)(F)F (stereo not drawn) [Compound 40],,,,,,,,,,,,,80,100,30,,90,60,90
